Where two headings read alike, the source gives them in different places.
Legend:
A10 cells [1] = assay: p-EGFP-N3 (GFP) plasmid transfection of A10 cells on native type I collagen with cytochalasin D added after lipofection; type: cell-based, Rat; conditions: 1 nanomolar
Protocol: A10 cells were grown on native type I collagen. […] Immediately after lipofection, cytochalasin D at a final concentration of 1 nanomolar was either added to cells for thirty minutes, added to cells for an overnight incubation or not added at all (control). The fluorescence of control cells, cells treated with cytochalasin D for thirty minutes, and cells treated with cytochalasin D for an overnight incubation (FIGS. 6A, 6B and 6C, respectively) was assessed. Bright field micrographs were also taken of the control cells, cells treated with cytochalasin D for thirty minutes, and cells treated with cytochalasin D for an overnight incubation (FIGS. 7A, 7B and 7C, respectively).

A10 cells [2] = test system: A10 cells
Protocol: A10 cells were grown on native type I collagen containing 0, 15 and 50 micrograms per milliliter of Tenascin C. The cells were transfected with p-EGFP-N3 (green fluorescent protein) plasmid DNA.

Row | Compound | transfection (GFP expression), time dependence (A10 cells [1]; added immediately after lipofection) | transfection relative to control cells (A10 cells [1]; overnight exposure) | transfection relative to control cells (A10 cells [1]; thirty minute exposure) | cell morphology (bright field micrograph) (A10 cells [2]) | transfection (GFP expression), dose dependence (A10 cells [2]; 0, 15 and 50 micrograms per milliliter in native type I collagen, 24 h after transfection) | transfection (GFP fluorescence) (A10 cells [2]; 15 micrograms per milliliter in native type I collagen, 24 h after transfection) | transfection (GFP fluorescence) (A10 cells [2]; 50 micrograms per milliliter in native type I collagen, 24 h after transfection)
1 | C=C1[C@@H](C)[C@H]2[C@H](Cc3ccccc3)NC(=O)[C@]23[C@H](OC(C)=O)/C=C/[C@@](C)(O)C(=O)[C@@H](C)C/C=C/[C@H]3[C@@H]1O [cytochalasin D] | time-dependent increase in transfection | notably higher amount of transfection | increased transfection | – | – | – | –
2 | Tenascin C: extracellular matrix protein abundantly expressed within remodeling tissues; added to native type I collagen | – | – | – | normal cell morphology | dose-dependent increase in transfection | increased transfection | highest degree of transfection

Reference: US6919208B2, “Methods and compositions for enhancing the delivery of a nucleic acid to a cell” (The Children's Hospital of Philadelphia, priority 2000, dated 2005)
